These results are taken from US6001867A, “1-aryl-dibenzothiophenes” (American Home Products Corporation, priority 1999, dated 1999).

In series [1] the target is T1, Human recombinant PTP1B (hPTP1B) (Homo sapiens, UniProt P18031).
T1 sequence (P18031 1-435): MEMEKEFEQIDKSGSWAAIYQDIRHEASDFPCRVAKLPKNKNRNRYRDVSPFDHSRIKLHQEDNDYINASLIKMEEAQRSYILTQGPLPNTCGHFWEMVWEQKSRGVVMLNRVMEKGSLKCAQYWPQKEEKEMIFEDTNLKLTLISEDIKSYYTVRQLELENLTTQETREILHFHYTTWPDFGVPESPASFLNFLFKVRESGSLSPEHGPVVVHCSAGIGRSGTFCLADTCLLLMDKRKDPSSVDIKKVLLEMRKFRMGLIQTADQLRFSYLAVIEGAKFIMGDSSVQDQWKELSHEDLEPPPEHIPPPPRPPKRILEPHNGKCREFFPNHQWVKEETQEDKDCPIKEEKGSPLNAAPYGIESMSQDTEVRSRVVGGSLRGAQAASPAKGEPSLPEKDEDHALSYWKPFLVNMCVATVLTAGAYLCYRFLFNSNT

Series [2] has as its system rat hepatic microsomal PTPases. Particulars: test compound 50 μM; rat hepatic microsomal fraction; substrate 50 uM, 37 deg.C.
For series [3] the following is noted: literature study; cited from earlier work.

A word on the IC50: it is the concentration that inhibits the measured activity by half. As for `O=C(O)[C@@H](Cc1ccccc1)Oc1c(Br)cc(-c2c(Br)ccc3sc4ccccc4c23)cc1Br` [Example 20], in series [1], the IC50 amounted to 0.604 µM. For the same compound, in series [2], the “% Change from Control (PTPase activity)” value is recorded as -75.69%.
For the compound `O=C(O)[C@@H](CCN1C(=O)c2ccccc2C1=O)Oc1c(Br)cc(-c2c(Br)ccc3sc4ccccc4c23)cc1Br` [Example 21, (R)-2-[2,6-Dibromo-4-(2-bromo-dibenzothiophen-1-yl)-phenoxy]-4-(1,3-dioxo-1,3-dihydro-isoindol-2-yl)-butyric acid], the IC50 in series [1] was determined as 1.39 µM. Also, the “% Change from Control (PTPase activity)” value in series [2] is given as -87.44%.
With `COC(=O)COc1ccc(-c2c(Br)ccc3sc4ccccc4c23)cc1` [Example 10, [4-(2-Bromo-dibenzothiophen-1-yl)-phenoxy]-acetic Acid Methyl Ester], the “% Change from Control (PTPase activity)” value in series [2] is -21.11%.
On to `Oc1ccc(-c2cccc3sc4ccccc4c23)cc1` [Example 3, 4-(Dibenzothiophen-1-yl)-phenol], for which the “% Change from Control (PTPase activity)” value in series [2] is reported as -51.63%.
On to `Oc1c(Br)cc(-c2cccc3sc4ccccc4c23)cc1Br` [Example 7, 2,6-Dibromo-4-(dibenzothiophen-1-yl)-phenol], for which the IC50 in series [1] turned out to be 1.89 µM. Moreover, the “% Change from Control (PTPase activity)” value in series [2] is recorded as -18.53%.
With `O=C(O)COc1ccc(-c2cccc3sc4ccccc4c23)cc1` [Example 12, [4-(Dibenzothiophen-1-yl)-phenoxy]-acetic Acid], the “% Change from Control (PTPase activity)” value in series [2] was -19.49%.
Regarding `O=C(O)[C@@H](Cc1ccccc1)Oc1c(Br)cc(-c2cccc3sc4ccccc4c23)cc1Br` [Example 19, (R)-2-[2,6-Dibromo-4-(dibenzothiophen-1-yl)-phenoxy]-3-phenyl-propionic acid], in series [1], the IC50 was 1.33 µM. In series [2], the “% Change from Control (PTPase activity)” value is on record as -81.43%.
`Oc1ccc(-c2c(Br)ccc3sc4ccccc4c23)cc1` [Example 6, 4-(2-Bromo-dibenzothiophen-1-yl)-phenol]: the “% Change from Control (PTPase activity)” value in series [2] is given as -31.13%.
Turning to `O=C(O)COc1ccc(-c2c(Br)ccc3sc4ccccc4c23)cc1` [Example 13, [4-(2-Bromo-dibenzothiophen-1-yl)-phenoxy]-acetic Acid], the “% Change from Control (PTPase activity)” value in series [2] is on record as -42.62%.
`CN(C)c1ccc(-c2cccc3sc4ccccc4c23)cc1` [compound A (R=NMe2, R'=H)]: the carcinogenicity result in series [3] is “inactive”.
`O=C(O)COc1c(Br)cc(-c2cccc3sc4ccccc4c23)cc1Br` [Example 14, [2,6-Dibromo-4-(dibenzothiophen-1-yl)-phenoxy]-acetic acid]: the “% Change from Control (PTPase activity)” value in series [2] is on record as -74.88%.
